≈ marks a conversion by molar mass, not a printed value.
How the values were obtained:
[1] = system: Mycobacterium tuberculosis H37Rv (pFCA-luxAB); experiment: microbe, parasite or virus in culture; assay type: cell-based; details: for inhibition at 100 µM: read-out: % Inhibition at 100 μM Mtb LORA
MAGL [2] = target: T1, MAGL (Mus musculus, UniProt O35678); experiment: In vitro competitive activity-based protein profiling (Table 2, % inhibition at 1 μM); assay type: biochemical; details: read-out: % Inhibition at 1 μM MAGL
T1 sequence (O35678 1-303): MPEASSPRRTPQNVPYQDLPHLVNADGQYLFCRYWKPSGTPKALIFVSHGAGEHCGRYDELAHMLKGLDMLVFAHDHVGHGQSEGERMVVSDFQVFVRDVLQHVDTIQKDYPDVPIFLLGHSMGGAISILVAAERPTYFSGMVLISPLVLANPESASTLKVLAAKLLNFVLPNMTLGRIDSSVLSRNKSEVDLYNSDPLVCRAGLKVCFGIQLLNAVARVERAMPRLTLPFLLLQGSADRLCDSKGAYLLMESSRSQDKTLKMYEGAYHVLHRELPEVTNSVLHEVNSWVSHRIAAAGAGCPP
Description: After 30 min, FP—Rh (1.0 μL, 50 μM in DMSO) was added and the mixture was incubated for another 30 min at 37° C. Reactions were quenched with SDS loading buffer (50 μL-4×) and run on SDS-PAGE.
Cell lysates were diluted with mock proteomes for use in competitive ABPP experiments.

ABHD6 [3] = target: T2, ABHD6 (Mus musculus, UniProt Q8R2Y0); experiment: as above; assay type: biochemical; details: read-out: % Inhibition at 1 μM ABHD6
T2 sequence (Q8R2Y0 1-336): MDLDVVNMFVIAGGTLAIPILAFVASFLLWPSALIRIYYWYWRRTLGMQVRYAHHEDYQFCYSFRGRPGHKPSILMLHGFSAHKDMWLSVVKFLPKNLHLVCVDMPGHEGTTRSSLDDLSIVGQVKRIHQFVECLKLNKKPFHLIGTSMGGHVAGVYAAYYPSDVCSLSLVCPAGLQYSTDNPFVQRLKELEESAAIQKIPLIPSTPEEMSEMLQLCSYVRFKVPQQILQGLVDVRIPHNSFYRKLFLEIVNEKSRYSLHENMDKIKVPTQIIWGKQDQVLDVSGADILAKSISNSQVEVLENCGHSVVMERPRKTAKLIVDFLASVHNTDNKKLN

FAAH [4] = target: T3, FAAH (Mus musculus, UniProt O08914); experiment: as above; assay type: biochemical; details: read-out: % Inhibition at 1 μM FAAH
T3 sequence (O08914 1-579): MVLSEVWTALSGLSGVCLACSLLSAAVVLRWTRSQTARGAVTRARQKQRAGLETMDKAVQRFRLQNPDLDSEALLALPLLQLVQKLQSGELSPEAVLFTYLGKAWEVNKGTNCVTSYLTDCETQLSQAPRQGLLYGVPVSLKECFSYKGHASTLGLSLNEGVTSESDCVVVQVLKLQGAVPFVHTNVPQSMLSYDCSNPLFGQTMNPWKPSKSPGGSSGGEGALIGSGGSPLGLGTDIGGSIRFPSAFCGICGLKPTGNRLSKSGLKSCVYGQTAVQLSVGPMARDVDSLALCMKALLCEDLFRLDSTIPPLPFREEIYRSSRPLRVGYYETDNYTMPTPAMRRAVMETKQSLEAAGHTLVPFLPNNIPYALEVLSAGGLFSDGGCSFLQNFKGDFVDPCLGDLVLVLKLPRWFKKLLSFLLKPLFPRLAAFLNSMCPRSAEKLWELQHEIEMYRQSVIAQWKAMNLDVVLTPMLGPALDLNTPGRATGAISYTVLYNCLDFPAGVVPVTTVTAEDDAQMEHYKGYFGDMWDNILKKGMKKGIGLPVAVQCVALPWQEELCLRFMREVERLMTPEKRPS

[5] = system: Mycobacterium Tuberculosis (Mtb); experiment: Microplate Alamar Blue assay (MABA) against Mtb; assay type: cell-based
Description: The activity of disclosed compounds against Mtb can be assessed according to a method based on the microplate Alamar Blue® assay (MABA) (Collins and Franzblau, 1997. Microplate alamar blue assay versus BACTEC 460 system for high-throughput screening of compounds against Mycobacterium tuberculosis and Mycobacterium avium. Antimicrobial Agents and Chemotherapy 41, 1004-1009). Briefly, stock solutions of disclosed compounds are prepared and added to, for example, two wells of a microplate. One well is inoculated with broth containing Mtb. The second well receives only media in order to assess background fluorescence. For MICs, serial dilutions are performed in media. Each microplate is incubated for a period of time. After incubation, one control growth is developed with a mixture of Alamar Blue® solution and Tween 80. The plates are then reincubated. Afterwards, if the well turns pink, the dye mixture is placed into all wells and the plates are reincubated for an additional period of time. The mean fluorescence units (FU) of media-only wells are subtracted from all other wells. The results are expressed in terms of % inhibition defined as 1-(test well FU/mean FU of triplicate bacteria-only wells)×100. The MIC is defined as the lowest concentration effecting a reduction in fluorescence of ≧90% relative to bacteria-only controls.

Trypanosoma brucei = experiment: Alamar Blue assay against Trypanosoma brucei; assay type: cell-based; details: read-out: IC50 T. brucei
Source text: The ability of disclosed compounds to inhibit Trypanosoma brucei (T. brucei) can be assessed using the Alamar Blue® assay (Räz et al., 1997. The Alamar Blue® assay to determine drug sensitivity of African trypanosomes (T.b. rhodesiense and T.b. gambiense) in vitro. Acta Tropica 68, 139-147). Bloodstream form trypanosomes are cultivated in Minimum Essential Medium (MEM). Standard curves can be generated by serially diluting T. brucei in culture medium and measuring fluorescence and absorbance after a period of incubation with Alamar Blue®. A drug sensitivity assay can be performed as described for the LILIT (long incubation low inoculation test) previously described (Brun and Lun, 1994. Drug sensitivity of Chinese Trypanosoma evansi and Trypanosoma equiperdum isolates. Vet. Parasitol. 52, 37-46) with minor modifications. Briefly, bloodstream form trypanosomes can be inoculated into microtiter plates and incubated in the presence of various disclosed compound concentrations for a period of time. Background fluorescence and absorbance of the drug-containing medium are determined for each drug dilution. Wells without drug serve as controls. Alamar Blue® is added after a period of time and fluorescence and colorimetric development is later determined.

MAGL [6] = target: T1, MAGL; experiment: biochemical; details: mouse; in vitro competitive ABPP; read-out: Mouse (IC50 value, nM) MAGL
FAAH [7] = target: T3, FAAH; experiment: biochemical; details: in vitro competitive ABPP
ABHD6 [8] = target: T2, ABHD6; experiment: biochemical; details: in vitro competitive ABPP
Mouse brain MAGL = target: T4, Mouse brain MAGL (Mus musculus, UniProt O35678); experiment: Mouse brain proteomes from inhibitor treated mice (oral gavage, ABPP analysis); assay type: in vivo; details: p.o., sacrificed 4 h following administration
T4 construct: from tissue; host or cells: brain of wild-type C57Bl/6J mice dosed by oral gavage
T4 sequence (O35678 1-303): T1 sequence (O35678 1-303)

Question: With `CNC(=O)C(OC(=O)N1CC2CN(C(c3ccc(Cl)cc3)c3ccc(Cl)cc3)CC2C1)C(F)(F)F` (stereo not drawn) [Example 125, 2,2,2-Trifluoro-1-(methylcarbamoyl)ethyl 5-[bis(4-chlorophenyl)methyl]-octahydropyrrolo[3,4-c]pyrrole-2-carboxylate] as the molecule, how does the inhibition at 100 µM [1] read?
Answer: > 80%

Question: And the inhibition at 1 µM (MAGL [2])?
Answer: 25 to 75%

Question: And the inhibition at 1 µM (ABHD6 [3])?
Answer: < 25%

Question: And the inhibition at 1 µM (FAAH [4])?
Answer: < 25%

Question: And the MIC [5]?
Answer: ≤ 50 µM

Question: For `O=C(OC(C(F)(F)F)C(F)(F)F)N1CC2CN(Cc3ccc(-c4ccccc4)cc3)CC2C1` (stereo not drawn) [Example 9, 1,1,1,3,3,3-Hexafluoropropan-2-yl 5-[(4-phenylphenyl)methyl]-octahydropyrrolo[3,4-c]pyrrole-2-carboxylate], which inhibition at 100 µM [1] is on record?
Answer: > 80%

Question: And the MIC ([1]; read-out: MIC Mtb LORA)?
Answer: ≤ 50 µM

Question: And the inhibition at 1 µM (MAGL [2])?
Answer: > 75%

Question: What about the inhibition at 1 µM (ABHD6 [3]) of the same molecule?
Answer: 25 to 75%

Question: What about the inhibition at 1 µM (FAAH [4]) of the same molecule?
Answer: 25 to 75%

Question: What about the MIC [5] of the same molecule?
Answer: ≤ 50 µM

Question: With `CNC(=O)C(OC(=O)N1CC2CN(Cc3ccc(-c4ccccc4)cc3)CC2C1)C(F)(F)F` (stereo not drawn) [Example 126, 2,2,2-Trifluoro-1-(methylcarbamoyl)ethyl 5-[(4-phenylphenyl)methyl]-octahydropyrrolo[3,4-c]pyrrole-2-carboxylate] as the molecule, how does the inhibition at 100 µM [1] read?
Answer: > 80%

Question: What about the inhibition at 1 µM (MAGL [2]) of the same molecule?
Answer: 25 to 75%

Question: And the inhibition at 1 µM (ABHD6 [3])?
Answer: < 25%

Question: What about the inhibition at 1 µM (FAAH [4]) of the same molecule?
Answer: 25 to 75%

Question: What about the MIC [5] of the same molecule?
Answer: 51 to 100 µM (≈ 23.5 to 46.1 µg/mL)

Question: Which inhibition at 100 µM [1] does the source give for `O=C(ON1C(=O)CCC1=O)N1CC2CN(Cc3ccc(-c4ccccc4)cc3)CC2C1` (stereo not drawn) [Example 84, 2,5-Dioxopyrrolidin-1-yl 5-[(4-phenylphenyl)methyl]-octahydropyrrolo[3,4-c]pyrrole-2-carboxylate] here?
Answer: > 80%

Question: And the inhibition at 1 µM (MAGL [2])?
Answer: > 75%

Question: What about the inhibition at 1 µM (ABHD6 [3]) of the same molecule?
Answer: 25 to 75%

Question: And the inhibition at 1 µM (FAAH [4])?
Answer: > 75%

Question: And the MIC [5]?
Answer: 51 to 100 µM (≈ 21.4 to 41.9 µg/mL)

Question: `O=C(ON1C(=O)CCC1=O)N1CC2CN(Cc3ccc(Cl)cc3N3CCC4(CCOCC4)C3)CC2C1` (stereo not drawn) [Example 106, 2,5-Dioxopyrrolidin-1-yl 5-[(4-chloro-2-[8-oxa-2-azaspiro[4.5]decan-2-yl]phenyl)methyl]-octahydropyrrolo[3,4-c]pyrrole-2-carboxylate] was tested. Which IC50 (Trypanosoma brucei) did it give?
Answer: < 5000 nM

Question: What about the inhibition at 1 µM (MAGL [2]) of the same molecule?
Answer: 25 to 75%

Question: What about the inhibition at 1 µM (ABHD6 [3]) of the same molecule?
Answer: < 25%

Question: And the inhibition at 1 µM (FAAH [4])?
Answer: < 25%

Question: For `O=C(ON1C(=O)CCC1=O)N1CC2CN(C(c3ccc(Cl)cc3)c3ccc(Cl)cc3)CC2C1` (stereo not drawn) [Example 83, 2,5-Dioxopyrrolidin-1-yl 5-[bis(4-chlorophenyl)methyl]-octahydropyrrolo[3,4-c]pyrrole-2-carboxylate], which inhibition at 100 µM [1] is on record?
Answer: > 80%

Question: And the inhibition at 1 µM (MAGL [2])?
Answer: 25 to 75%

Question: What about the inhibition at 1 µM (ABHD6 [3]) of the same molecule?
Answer: < 25%

Question: And the inhibition at 1 µM (FAAH [4])?
Answer: < 25%

Question: What about the MIC [5] of the same molecule?
Answer: ≤ 50 µM

Question: Which IC50 (MAGL [6]) does the source give for `CCn1cc(CN2CC3CN(C(=O)OC(C(F)(F)F)C(F)(F)F)CC3C2)c(-c2cccc(N3CCC3)c2)n1` (stereo not drawn) [Example 66, 1,1,1,3,3,3-Hexafluoropropan-2-yl 5-([3-[3-(azetidin-1-yl)phenyl]-1-ethyl-1H-pyrazol-4-yl]methyl)-octahydropyrrolo[3,4-c]pyrrole-2-carboxylate] here?
Answer: < 100 nM

Question: What about the inhibition at 1 µM (MAGL [2]) of the same molecule?
Answer: > 75%

Question: What about the inhibition at 1 µM (ABHD6 [3]) of the same molecule?
Answer: 25 to 75%

Question: What about the inhibition at 1 µM (FAAH [4]) of the same molecule?
Answer: < 25%

Question: And the IC50 (FAAH [7])?
Answer: 1000 to 10000 nM

Question: What about the IC50 (ABHD6 [8]) of the same molecule?
Answer: 1000 to 10000 nM

Question: What about the inhibition at 5 mg/kg (Mouse brain MAGL) of the same molecule?
Answer: ≤ 25%

Question: How did the IC50 (MAGL [6]) turn out when `CC(C)(C)c1cc(CN2CC3CN(C(=O)OC(C(F)(F)F)C(F)(F)F)CC3C2)n(-c2ccccc2Cl)n1` (stereo not drawn) [Example 170, 1,1,1,3,3,3-hexafluoropropan-2-yl 5-[[3-tert-butyl-1-(2-chlorophenyl)-1H-pyrazol-5-yl]methyl]-octahydropyrrolo[3,4-c]pyrrole-2-carboxylate] was run?
Answer: < 100 nM

Question: What about the inhibition at 1 µM (MAGL [2]) of the same molecule?
Answer: > 75%

Question: What about the inhibition at 1 µM (ABHD6 [3]) of the same molecule?
Answer: 25 to 75%

Question: What about the inhibition at 1 µM (FAAH [4]) of the same molecule?
Answer: < 25%

Question: And the IC50 (FAAH [7])?
Answer: > 10000 nM

Question: And the IC50 (ABHD6 [8])?
Answer: 1000 to 10000 nM

Question: What about the inhibition at 5 mg/kg (Mouse brain MAGL) of the same molecule?
Answer: 25 to 75%

Question: `Cn1cc(CN2CC3CN(C(=O)OC(C(F)(F)F)C(F)(F)F)CC3C2)c(-c2ccccc2Cl)n1` (stereo not drawn) [Example 51, 1,1,1,3,3,3-Hexafluoropropan-2-yl 5-[[3-(2-chlorophenyl)-1-methyl-1H-pyrazol-4-yl]methyl]-octahydropyrrolo[3,4-c]pyrrole-2-carboxylate] was tested. Which IC50 (MAGL [6]) did it give?
Answer: < 100 nM

Question: What about the inhibition at 1 µM (MAGL [2]) of the same molecule?
Answer: > 75%

Question: What about the inhibition at 1 µM (ABHD6 [3]) of the same molecule?
Answer: 25 to 75%

Question: And the inhibition at 1 µM (FAAH [4])?
Answer: < 25%

Question: And the IC50 (FAAH [7])?
Answer: > 10000 nM

Question: What about the IC50 (ABHD6 [8]) of the same molecule?
Answer: 1000 to 10000 nM

Question: What about the inhibition at 5 mg/kg (Mouse brain MAGL) of the same molecule?
Answer: ≤ 25%

— patent US9828379B2 (priority 2013, dated 2017)
